The values that follow come from patent publication US8859494B2, “Spirocyclically substituted 1,3-propane dioxide derivatives, processes for preparation thereof and use thereof as a medicament” (Sanofi, priority 2010, dated 2014).

The target in this experiment is T1, GPCR GPR40 (Rattus norvegicus, UniProt Q8K3T4).
T1 construct: expressed in transfected cells; host or cells: HEK293
The experiment is described as follows: In vitro FLIPR assay with recombinant cells which express the GPCR GPR40. It counts as cell-based. The settings on record: recombinant HEK293 cells expressing GPR40; agonist-induced change in intracellular Ca2+ (Fluo-4, FLIPR); 100% = 10 μM reference agonist linoleic acid. On the procedure:
In Vitro FLIPR Assay with Recombinant Cells which Express the GPCR GPR40
Function-testing assays were performed by means of the FLIPR technique (“Fluorescence Imaging Plate Reader”, Molecular Devices Corp.). For this purpose, agonist-induced changes were determined in the intracellular concentration of Ca^2+ in recombinant HEK293 cells which expressed the GPCR GPR40.
For the studies, cells were sown into 96-well microtiter plates (60 000 cells/well) and left to grow overnight. The medium was removed and the cells were incubated in buffer which contains the fluorescent dye Fluo-4. After this loading with dye, the cells were washed, test substance was added and changes were measured in the intracellular Ca^2+ concentration in the FLIPR instrument. Results were presented as the percentage change relative to the control (0%: no test substance added; 100%: 10 μM reference agonist linoleic acid added) and used to calculate dose/effect curves, and EC50 values were determined.

SMILES strings stand for the structures.

T1 sequence (Q8K3T4 whole entry): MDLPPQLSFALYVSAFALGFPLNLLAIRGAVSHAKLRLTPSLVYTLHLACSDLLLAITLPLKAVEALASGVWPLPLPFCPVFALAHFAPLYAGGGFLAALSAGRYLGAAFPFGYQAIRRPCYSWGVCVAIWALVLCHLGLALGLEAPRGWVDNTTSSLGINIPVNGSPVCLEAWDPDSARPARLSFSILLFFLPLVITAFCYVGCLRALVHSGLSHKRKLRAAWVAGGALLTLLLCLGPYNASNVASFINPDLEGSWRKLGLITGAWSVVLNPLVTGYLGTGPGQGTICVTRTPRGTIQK

For `CC#CC(CC(=O)O)c1ccc(OCC2(COc3ccc(C(F)(F)F)cc3)CC2)cc1` (stereo not drawn) [Example 2, 3-{4-[1-(4-Trifluoromethylphenoxymethyl)cyclopropylmethoxy]phenyl}hex-4-ynoic acid], the EC50 came out at 370 nM.
Take `CC#CC(CC(=O)O)c1ccc(OCC2(COc3ccccc3)CCC2)cc1` (stereo not drawn) [Example 8, 3-[4-(1-Phenoxymethylcyclobutylmethoxy)phenyl]hex-4-ynoic acid]: the EC50 worked out at 450 nM.
With `CC#CC(CC(=O)O)c1ccc(OCC2(COc3ccccc3F)CC2)cc1` (stereo not drawn) [Example 21, 3-{4-[1-(2-Fluorophenoxymethyl)cyclopropylmethoxy]phenyl}hex-4-ynoic acid] the figure was 110 nM.
With `CC#CC(CC(=O)O)c1ccc(OCC2(COc3cccc(C)c3)CCC2)cc1` (stereo not drawn) [Example 7, 3-[4-(1-m-Tolyloxymethylcyclobutylmethoxy)phenyl]hex-4-ynoic acid] the figure was 1540 nM.
With `CC#CC(CC(=O)O)c1ccc(OCC2(COc3ccc(F)cc3)CC2)cc1` (stereo not drawn) [Example 19, 3-{4-[1-(4-Fluorophenoxymethyl)cyclopropylmethoxy]phenyl}hex-4-ynoic acid] the figure was 70 nM; with `CC#CC(CC(=O)O)c1ccc(OCC2(COc3ccc(C#N)c(Cl)c3)CC2)cc1` (stereo not drawn) [Example 12, 3-{4-[1-(3-Chloro-4-cyanophenoxymethyl)cyclopropylmethoxy]phenyl}hex-4-ynoic acid], 140 nM; with `CC#CC(CC(=O)O)c1ccc(OCC2(COc3ccc(C(F)(F)F)cc3Cl)COC2)cc1` (stereo not drawn) [Example 4, 3-{4-[3-(2-Chloro-4-trifluoromethylphenoxymethyl)oxetan-3-ylmethoxy]phenyl}hex-4-ynoic acid], 2550 nM.
Consider `CC#CC(CC(=O)O)c1ccc(OCC2(COc3cccc(C)c3)CC2)cc1` (stereo not drawn) [Example 11, 3-[4-(1-m-Tolyloxymethylcyclopropylmethoxy)phenyl]hex-4-ynoic acid], for which the EC50 came out at 150 nM.
With `CC#CC(CC(=O)O)c1ccc(OCC2(COc3ccc(F)c(Cl)c3)CC2)cc1` (stereo not drawn) [Example 22, 3-{4-[1-(3-Chloro-4-fluorophenoxymethyl)cyclopropylmethoxy]phenyl}hex-4-ynoic acid], the EC50 was 330 nM.
With `CC#CC(CC(=O)O)c1ccc(OCC2(COc3ccc(C(F)(F)F)nc3)CC2)cc1` (stereo not drawn) [Example 13, 3-{4-[1-(6-Trifluoromethylpyridin-3-yloxymethyl)cyclopropylmethoxy]phenyl}hex-4-ynoic acid] the figure was 710 nM; with `CC#CC(CC(=O)O)c1ccc(OCC2(COc3cccc(F)c3)CC2)cc1` (stereo not drawn) [Example 20, 3-{4-[1-(3-Fluorophenoxymethyl)cyclopropylmethoxy]phenyl}hex-4-ynoic acid], 70 nM; with `CC#CC(CC(=O)O)c1ccc(OCC2(COc3cccc(C(C)(C)C)c3)CC2)cc1` (stereo not drawn) [Example 1, 3-{4-[1-(3-tert-Butylphenoxymethyl)cyclopropylmethoxy]phenyl}hex-4-ynoic acid], 730 nM.
The figure for `CC#CC(CC(=O)O)c1ccc(OCC2(COc3cccc(C(C)(C)C)c3)CCC2)cc1` (stereo not drawn) [Example 5, 3-{4-[1-(3-tert-Butylphenoxymethyl)cyclobutylmethoxy]phenyl}hex-4-ynoic acid] is 2560 nM.
With `CC#CC(CC(=O)O)c1ccc(OCC2(COc3ccccc3C)CC2)cc1` (stereo not drawn) [Example 18, 3-[4-(1-o-Tolyloxymethylcyclopropylmethoxy)phenyl]hex-4-ynoic acid] the figure was 60 nM; with `COC(CC(=O)O)c1ccc(OCC2(COc3ccc(C(F)(F)F)cn3)CC2)cc1` (stereo not drawn) [Example 16, 3-Methoxy-3-{4-[1-(5-trifluoromethylpyridin-2-yloxymethyl)cyclopropylmethoxy]phenyl}-propionic acid], 2460 nM; with `CC#CC(CC(=O)O)c1ccc(OCC2(COc3ccc(C(F)(F)F)cn3)CC2)cc1` (stereo not drawn) [Example 14, 3-{4-[1-(5-Trifluoromethylpyridin-2-yloxymethyl)cyclopropylmethoxy]phenyl}hex-4-ynoic acid], 170 nM.
Regarding `CC#CC(CC(=O)O)c1ccc(OCC2(COc3cccc(Cl)c3)CC2)cc1` (stereo not drawn) [Example 3, 3-{4-[1-(3-Chlorophenoxymethyl)cyclopropylmethoxy]phenyl}hex-4-ynoic acid], the EC50 worked out at 290 nM.
With `CC#CC(CC(=O)O)c1ccc(OCC2(COc3ccc(C(F)(F)F)cc3Cl)CC2)cc1` (stereo not drawn) [Example 15, 3-{4-[1-(2-Chloro-4-trifluoromethylphenoxymethyl)cyclopropylmethoxy]phenyl}hex-4-acid] the figure was 1580 nM.
With `CC#CC(CC(=O)O)c1ccc(OCC2(COc3ccc(C(F)(F)F)cc3)CCC2)cc1` (stereo not drawn) [Example 6, 3-{4-[1-(4-Trifluoromethylphenoxymethyl)cyclobutylmethoxy]phenyl}hex-4-ynoic acid], the EC50 worked out at 1320 nM.
Turning to `CC#CC(CC(=O)O)c1ccc(OCC2(COc3ccccc3)CC2)cc1` (stereo not drawn) [Example 10, 3-[4-(1-Phenoxymethylcyclopropylmethoxy)phenyl]hex-4-ynoic acid], the EC50 amounted to 70 nM.
With `CC#CC(CC(=O)O)c1ccc(OCC2(COc3cc(C(F)(F)F)cc(C(F)(F)F)c3)CC2)cc1` (stereo not drawn) [Example 9, 3-{4-[1-(3,5-Bis(trifluoromethyl)phenoxymethyl)cyclopropylmethoxy]phenyl}hex-4-ynoic acid] the figure was 1660 nM.

Broadly, the EC50 is the concentration that produces a half-maximal response.
